Laboratory results published in paper PMC11149917, “Translational and Therapeutic Evaluation of RAS-GTP Inhibition by RMC-6236 in RAS-Driven Cancers” (Cancer Discovery, 2024).

Experiments:
CC3 in ear skin = assay: IHC whole-slide quantification; assay type: in vivo, mouse; details: control 2.2
Experimental: (§1) All tissues were fixed for up to 24 hours using 10% neutral buffered formalin and then moved to 70% ethanol for long-term storage. FFPE sections (4 µm) were stained on the Biocare intelliPATH automated staining platform using the manufacturer’s recommended settings.
(§2) All tissue sections were incubated with Biocare Peroxidase Blocker (Biocare, cat no. PX968) and Background Punisher (Biocare, cat no. BP974M) to block nonspecific background. MACH4 HRP-polymer Detection System (Biocare, cat no. MRH534) was used to detect rabbit primary antibodies.
(§3) DAB-stained slides were scanned and digitized with a Huron TissueScope LE120 whole-slide scanner at 200× magnification.

CC3 in colon = assay: IHC whole-slide quantification; assay type: in vivo, mouse; details: control 0.318
Experimental: as §1, §2, §3

[1] = system: eCT26 (Kras^G12C/G12C) tumors in NSG mice; assay: Syngeneic model study, immune-deficient; assay type: in vivo, mouse; details: 25 mg/kg po qd
Source text: LU99 cells (JCRB0080) were stably modified with lentivirus-based pHBLV-CMV-MCS-EF1-fLuc-T2A-puro vector to generate luciferase-expressing LU99-Luc cells. NCI-H1373 cells (ATCC CRL-5866) were stably modified with lentivirus-based pHBLV-CMV-MCS-EF1-fluc-T2A-PURO vector to generate luciferase-expressing NCI-H1373-Luc cells. The eCT26 Kras^G12C^/G12CAbcb1^−^/^− (clone I20) and eCT26 Kras^G12D^/G12DAbcb1^−^/^− (clone I12) cell lines were engineered from the murine CT26 homozygous Kras^G12D tumor cell line (ATCC CRL-2638). All Kras^G12D alleles were replaced with Kras^G12C using CRISPR technology at Synthego. Additionally, the P-glycoprotein drug transporter, Abcb1a and Abcb1b, were knocked out using CRISPR guide sequences […] and […], respectively. The homozygous G12C mutation and the Abcb1 knockout were confirmed by Sanger sequencing in the clone selected and were used for in vivo experiments.
Female BALB/c immunocompetent mice and female NOD-SCID/IL2Rg(null; NSG) immune-deficient mice (6–8 weeks old) were purchased from the Jackson Laboratory and were acclimated at Revolution Medicines for 7 days before cell implantation. […] Treatments were initiated at the time of randomization when the average tumor volume reached 100 to 120 mm^3. The animals were assigned into groups using Studylog randomization software, performing stratified randomization based on their tumor volumes. […]

[2] = system: DUSP6 mRNA in human tumors; set-up: method as in IND M4 report; details: Human PK Model Parameters; apparent value; ref IND M4 report; cited from earlier work
HPAC = assay: 2D cell proliferation (CellTiter-Glo); assay type: cell-based; details: Homo sapiens; HPAC (KRAS^G12D/WT, PDAC); CTG, 120 hours; read-out: growth inhibition EC50
Experimental: (§4) NCI-H441, Capan-2, and HPAC cells were seeded in tissue culture–treated 384- or 96-well plates and incubated overnight. Cells were exposed to serial dilutions of compound or DMSO control (0.1% v/v) using a Labcyte Echo 550 or Tecan D300e digital dispenser and incubated for 120 hours at 37°C. Doxycycline-inducible cell lines were retreated with doxycycline at the time of compound treatment. Cell viability was determined by CellTiter-Glo 2.0 reagent (Promega, G9243) according to the manufacturers’ protocols. Luminescence was detected using a SpectraMax M5 Plate Reader (Molecular Devices) of PerkinElmer Enspire. Luminescence signal was normalized to vehicle-treated wells [% vehicle = (lumtreated/mean(lumvehicle) × 100]. Data were plotted as a function of log molar [inhibitor], and a 4-parameter sigmoidal concentration response model was fitted to the data to calculate the EC50. Growth percentages were calculated by normalizing the treated cell counts to their respective untreated cell counts.

Capan-2 = assay: 2D cell proliferation (CellTiter-Glo); assay type: cell-based; details: Homo sapiens; Capan-2 (KRAS^G12V/WT, PDAC); CTG, 120 hours; read-out: growth inhibition EC50
Experimental: as §4

pERK in ear skin = assay: IHC whole-slide quantification; assay type: in vivo, mouse; details: control 1.1
Experimental: as §1
Anti–phospho-p44/42 MAPK (Erk1/2; Thr202/Tyr204) rabbit monoclonal antibody (Cell Signaling Technology, cat no. 4370, clone: D13.14.4E) was used at 1:200 with citrate-based pH 6.2 heat-induced epitope retrieval; an isotype control (rabbit IgG) was used under the same conditions.
as §2, §3
Quantification of P-ERK and pS6 was performed with the HALO Image Analysis software from Indica labs using the Area Quantification module. The analysis was performed only on the tumor compartment copied from the EpCAM slide. The software was tuned to detect positive DAB staining (brown color). Percentage of area positivity was chosen to represent the results (area positive for brown/total area); and subjected to statistical analysis using GraphPad Prism (Dunnett multiple comparisons test).

## CCn1c(-c2cc(N3CCN(C)CC3)cnc2[C@H](C)OC)c2c3cc(ccc31)-c1csc(n1)C[C@H](NC(=O)[C@H]1C[C@@H]1C)C(=O)N1CCC[C@H](N1)C(=O)OCC(C)(C)C2 [RMC-6236]
CC3 in ear skin; Ear Skin (25 mg/kg x7d), 8h
  CC3 (% positive cells): 2.0%
CC3 in ear skin; Ear Skin (25 mg/kg x7d), 24h
  CC3 (% positive cells): 1.5%
CC3 in ear skin; Ear Skin (25 mg/kg x7d), 48hr
  CC3 (% positive cells): 1.5%
CC3 in ear skin; Ear Skin (25 mg/kg), 8h
  CC3 (% positive cells): 2.4%
CC3 in ear skin; Ear Skin (25 mg/kg), 24h
  CC3 (% positive cells): 1.5%
CC3 in ear skin; Ear Skin (25 mg/kg), 48hr
  CC3 (% positive cells): 1.3%
CC3 in colon; Colon (25 mg/kg ), 8h
  CC3 (% positive cells): 0.0833%
CC3 in colon; Colon (25 mg/kg ), 24h
  CC3 (% positive cells): 0.237%
CC3 in colon; Colon (25 mg/kg ), 48hr
  CC3 (% positive cells): 0.4%
CC3 in colon; Colon (25 mg/kg x 7d), 8h
  CC3 (% positive cells): 0.177%
CC3 in colon; Colon (25 mg/kg x 7d), 24h
  CC3 (% positive cells): 0.277%
CC3 in colon; Colon (25 mg/kg x 7d), 48hr
  CC3 (% positive cells): 0.143%
[1]
  number of complete regressions per injected mice (mCR): 0/10
[2]
  V/F: 10.828 L/kg
HPAC
  EC50: 1.2 nM
Capan-2
  EC50: 1.4 nM
pERK in ear skin; Ear Skin (25 mg/kg x7d), 8h
  pERK (% positive area): 0.7%
pERK in ear skin; Ear Skin (25 mg/kg x7d), 24h
  pERK (% positive area): 0.9%
pERK in ear skin; Ear Skin (25 mg/kg x7d), 48hr
  pERK (% positive area): 2.6%
pERK in ear skin; Ear Skin (25 mg/kg), 8h
  pERK (% positive area): 1.1%
pERK in ear skin; Ear Skin (25 mg/kg), 24h
  pERK (% positive area): 1.8%
pERK in ear skin; Ear Skin (25 mg/kg), 48hr
  pERK (% positive area): 3.3%
